These results are taken from article PMC6934184, “Selective DNA-PKcs inhibition extends the therapeutic index of localized radiotherapy and chemotherapy” (The Journal of Clinical Investigation, 2019).

Each structure is given as a SMILES string.

In the assay the test system is DNA-PK–expressing tumor cell lines. As to the kind of experiment: clonogenic survival with IR, tumor cell line panel. The conditions noted are these: 1 μM, 24 hours. In kind it is cell-based, human. The protocol:
Cell line γH2AX and 53BP1 foci immunofluorescence and quantitation
Cells grown on coverslips or in 96-well plates were treated with 1 or 5 µM NU5455 or DMSO 1 hour prior to irradiation (0, 2.5 or 10 Gy) using an RS 320 X-ray Research System (Gulmay Medical). At set timepoints (15 or 30 minutes, or 1, 4, 5, 6, or 24 hours post-irradiation), cells were washed and fixed in methanol or 3% paraformaldehyde (PFA). […] In A549 and Calu-6, cells were Hoechst stained (5 µg/ml), and the average numbers of γH2AX and 53BP1 foci per cell were quantified from 400 nuclei per sample using an In Cell analyzer 1000 (GE Healthcare). For MCF7 cells, coverslips were mounted using Vectashield mounting medium with DAPI (Vector Labs) and imaged using a Leica TCS SPE confocal fluorescence microscope. Total fluorescence intensity was determined using ImagePro Plus 5.0 software (Media Cybernetics). […]
Cells were washed in phosphate-buffered saline (PBS), trypsinized and counted. […] Colonies were fixed using Carnoys fixture (75% v/v methanol, 25% v/v acetic acid, Fisher), stained with crystal violet (0.4% w/v in water), and counted using a ColCount automated colony counter (Oxford Optronics). Cell survival was calculated as a percentage of the untreated control. […]

Turning to `CN(C(=O)CN1CCOCC1)c1ccc2sc3c(-c4cccc5c(=O)cc(N6CC7CCC(C6)O7)oc45)cccc3c2c1` [NU5455], the “SER80 values, median over cell lines” value is given as 2.3 fold.
